The values below are quoted from earlier work in patent publication US20140200276A1 (iCeutica, Inc., priority 2009, published 2014).

In the case of `COc1ccc2cc([C@H](C)C(=O)O)ccc2c1` [naproxen], under “in vivo”, the “administered dose excreted in the feces” value was ≤ 3% and the “excreted in the urine as 6-O-desmethyl naproxen” value is recorded as < 1%. Moreover, the “naproxen from any dose excreted in the urine” value (total) was “Approximately 95%”. Further, for the setting “unchanged naproxen”, the “excreted in the urine as naproxen” value is < 1%.
